Measurements: patent US7989495B2, “Compositions and methods for inhibiting NF-κB mediated tumorigenicity and adhesion dependent survival of cancer cells” (University of Utah Research Foundation, priority 2002, dated 2011)
“Also recorded” adds a separate entry of the source. Peptide text beside a SMILES is read from it. * marks the point of attachment. Cbz = O=C(OCc1ccccc1)*

How the values were obtained:
Assay type in all cases: cell-based
adherent HT-29 cells = test: Apoptosis assay (annexin V-FITC / propidium iodide flow cytometry), adherent cells
Procedure: The data points represent the average percent of annexin V-positive, propidium iodide-negative cells (of the total cells counted) from triplicate experiments. The error bars represent the standard error of the means. […] The results shown are a graphic representation of individual flow cytometry results expressed as the percentage of cells that were annexin V-positive of those that excluded propidium iodide. […] An immunoblot of the lysates for cleaved PARP was performed. Each lane represents equal total protein concentrations. […] The cells were allowed to adhere to plastic dishes for 1 hour after which they were washed gently in PBS and stained with crystal violet. The crystal violet stained cells were solubilized in deoxycholate and the absorbance detected in a spectrophotometer at 590 nm. The adherent cells were expressed as a fraction of the controls Each data point represents the average of triplicate experiments and the error bars the standard errors of the means.
(§1) Single cell suspensions were plated at 100,000 cells per well in 24-well plates in media containing DMSO, BAY 11-7082, BAY 11-7085, or MG-132 for 8-24 hours in an incubator. Alternatively, DMSO, BAY 11-7082, BAY 11-7085, or MG-132 were added to cells that were confluent and adherent for several days. The nonadherent cells were aspirated off with the media and spun for 3 minutes at 2,000 rpm in 15 ml polypropylene tubes. The adherent cells were washed twice with PBS, dispersed in trypsin, and spun down for 3 minutes at 2,000 rpm in 15 ml polypropylene tubes. The nonadherent and adherent cells were resuspended in 1× binding buffer (10 mM HEPES/NaOH, pH 7.4, 140 mM NaCl, and 2.5 mM CaCl2) to a final concentration of 10^6 cells/ml. 100 μl of the cell solution were transferred to a 5 ml culture tube and incubated with 5 μl of annexin V-FITC-conjugated monoclonal antibody (Pharmingen) and 10 μl of propidium iodide (from a 50 μg/ml stock solution made in PBS) in the dark at 25° C. for 15 minutes. 400 μl of binding buffer was added to each tube and the cells were analyzed by flow cytometry immediately. The percent of apoptosis was determined as the percent of annexin V-positive, propidium iodide-negative cells of the total cells counted.

[1] = tested on: cleaved PARP in HT-29 cells; test: Immunoblot for cleaved PARP; details: 20 μM, 8 h
Procedure: The cells were washed twice in ice cold PBS and then lysed in 4° C. lysis buffer (50 mM HEPES, 150 mM NaCl, 1.5 mM MgCl2, 1 mM EGTA, 100 mM NaF, 10 mM Na2PO4, 1 mM Na3VO4, 10% glycerol, 1% Triton X-100, and 1 μg/ml each of aprotinin, leupeptin, chymostatin, pepstatin) and clarified at 12,000 rpm at 4° C. for 15 minutes. The lysates were normalized for total protein concentration. Aliquots of the lysates were then mixed 1:1 in sample buffer (125 mM Tris-HCl (pH 6.8), 20% glycerol. 4% sodium dodecyl sulfate, 2% beta-mercaptoethanol, 10 μg/ml bromophenol blue) and boiled for 3 minutes. The samples were loaded onto SDS-PAGE gels (7.5 or 10% acrylamide). […]
(§2) For immunodetection, the blocked blots were probed with primary antibody for 2 hours at 4° C. on a rocker. […] Alkaline phosphatase was detected by a colorimetric reaction using a BCIP (5-Bromo-4-Chloro-3-Indolyl phosphate)/NBT (Nitroblue tetrazolium) kit (Zymed).
It was confirmed in HT-29 cells that were treated with increasing concentrations of BAY 11-7085 for 24 h. After separating the HT-29 cells that remained adherent and those that became nonadherent after BAY 11-7085 treatment, the percentage of apoptotic cells was determined for each group. […]

[2] = tested on: cleaved PARP in HCT-116 cells; test: Immunoblot for cleaved PARP; details: 20 μM, 24 hours
Procedure: The data points represent the average percent of annexin V-positive, propidium iodide-negative cells (of the total cells counted) from triplicate experiments. The error bars represent the standard error of the means. […] The results shown are a graphic representation of individual flow cytometry results expressed as the percentage of cells that were annexin V-positive of those that excluded propidium iodide. […] An immunoblot of the lysates for cleaved PARP was performed. Each lane represents equal total protein concentrations. […] The cells were allowed to adhere to plastic dishes for 1 hour after which they were washed gently in PBS and stained with crystal violet. The crystal violet stained cells were solubilized in deoxycholate and the absorbance detected in a spectrophotometer at 590 nm. The adherent cells were expressed as a fraction of the controls Each data point represents the average of triplicate experiments and the error bars the standard errors of the means. […]
as §2

[3] = tested on: transiently suspended HT-29 cells; test: Apoptosis (annexin V) of transiently suspended cells allowed to readhere; details: HT-29; various concentrations; 4 h; compared with BAY 11-7085
Procedure: HT-29 cells that were either transiently suspended with trypsin-EDTA or adherent for three days, were treated at time zero with DMSO or 10-100 μM BAY 11-7085. The percent of apoptotic cells was determined using the annexin V flow cytometry assay and graphed versus the dose of BAY 11-7085. […] The cells were fixed and immunostained with an NF-κB p65 subunit monoclonal antibody.
The transiently suspended cells were lysed and allowed to bind to DNA oligonucleotides, containing the NF-κB consensus binding site, that were immobilized to 96-well plates. NF-κB protein bound to the oligonucleotides was detected by an antibody to the p65 subunit that only recognized p65 that is bound to DNA. The positive control was HeLa cells that were stimulated with TNFα A control was performed using excess free NF-κB oligonucleotides (Competitor). […] NF-κB binding activity was determined by the TransAM assay as in FIG. 5A. […] The data shown represent typical results of three separate experiments. […] An immunoblot for COX-2 was performed.
The percentage of apoptotic cells was determined using the annexin V assay. The data points represent the averages of three experiments; bars, ±SE. E. DLD-1 and F. HT-29 cells were transduced with an adenovirus containing the IκB super-repressor construct. After 3 days, the cells were transiently suspended and allowed to readhere in the presence of subapoptotic concentrations of BAY 11-7085 or DMSO (vehicle) for 8 h. The data are expressed as fractions of cells surviving compared with the controls (no adenovirus) and were quantitatively determined by staining the remaining adherent cells with crystal violet.
as §1
Various concentrations of BAY 11-7085 were added to HT-29 cells that were transiently suspended in trypsin-PBS for approximately 15 minutes before replating. The transiently suspended cells were quickly allowed to readhere in order to prevent anoikis. Alternatively, BAY 11-7085 was added to adherent HT-29 cell monolayers.

[4] = tested on: DLD-1 colon cancer cell line; test: Cell proliferation assay (crystal violet, 590 nm); details: 10 and 50 μg/ml, after several days of treatment
Procedure: (§3) DLD-1, HCT-116, and HT-29 colon cancer cell lines were obtained from the ATCC collection and were cultured in Dulbecco's Modification of Eagle's Medium supplemented with 10% fetal bovine serum, glutamine, penicillin, and streptomycin. 293 cells stably transfected with COX-2 (293-COX-2) under the control of a ponasterone sensitive promoter were cultured in Dulbecco's Modification of Eagle's Medium supplemented with 10% fetal bovine serum, 400 μg/ml of zeocin, 400 μg/ml of G418, glutamine, penicillin, and streptomycin. For induction of COX-2 protein expression, 293-COX-2 cells were cultured for 48 hours in media supplemented with 1 μg/ml of ponasterone. All cells were cultured at 37° C. in a humidified incubator with a 5% CO2 atmosphere.
(§4) For the cell proliferation assay, cells were dispersed and plated at 40,000 cells/well in 96-well dishes. At various days in culture, the cells were gently washed twice with 100 μl/well of ice-cold blocking buffer (1% radioimmunoassay grade BSA in PBS) and twice with 100 μl/well of ice-cold PBS. The cells were fixed for 10 min in 100% ice-cold methanol (100 μl/well), then allowed to air-dry. The cells were stained with 100μl/well of 0.1% crystal violet in H2O for 10 minutes, then washed gently four times with dd H20 and four times with PBS. The plates were then air-dried completely. The stained cells were then solubilized in 1% sodium deoxycholate, and the plates read at 590 nm in a spectrophotometer. The absorption at 590 nm is proportional to the number of attached cells.

[5] = tested on: HCT-116 colon cancer cell line; test: Cell proliferation assay (crystal violet, 590 nm); details: 10 and 50 μg/ml, after several days of treatment
Procedure: as §3, §4

[6] = tested on: HT-29 colon cancer cell line; test: Cell proliferation assay (crystal violet, 590 nm); details: 10 and 50 μg/ml, after several days of treatment
Procedure: as §3, §4

Compound	level of apoptosis (annexin V-positive, propidium iodide-negative cells) (adherent HT-29 cells; adherent HT-29, doses up to 20 μM (MG-132 20 μM), 24 hours)	cleaved PARP in cells that remained adherent [1]	cleaved PARP in the nonadherent cells [1]	cleaved PARP in cells that remained adherent [2]	cleaved PARP in the non-adherent cells [2]	induction of apoptosis during readhesion [3]	inhibition of colon cancer cell proliferation [4]	inhibition of colon cancer cell proliferation [5]	inhibition of colon cancer cell proliferation [6]	effect of cA2 pretreatment on BAY 11-7085-induced apoptosis (adherent HT-29 cells; HT-29, 50 μg/ml cA2 for 48 hours, then 20 μM BAY 11-7085 for 24 hours)
CC(C)C[C@@H](C=O)NC(=O)[C@H](CC(C)C)NC(=O)[C@H](CC(C)C)NC(=O)OCc1ccccc1 [MG-132, N-[(phenylmethoxy)carbonyl]-L-leucyl-N-[(1S)-1-formyl-3-methylbutyl]-L-leucinamide] (Cbz-Leu-Leu-Leu-aldehyde)	relatively greater for MG-132 than BAY 11-7085; also recorded: caused a greater increase in apoptosis	only a small increase in cleaved PARP	large increase in cleaved PARP	only a small increase in cleaved PARP	large increase in cleaved PARP	more potently induced apoptosis				
S=C(S)N1CCCC1 [PDTC, pyrrolidine dithiocarbamate]						caused apoptosis of HT-29 cells during readhesion				
cA2: antagonistic and chimeric TNFα monoclonal antibody purchased from the clinical pharmacy; inhibits TNFα binding to TNFα receptors							significant inhibition	significant inhibition	significant inhibition	did not diminish BAY 11-7085-induced apoptosis
